Measurements reported in US20110065734A1, “NOVEL BIFUNCTIONAL COMPOUNDS WHICH INHIBIT PROTEIN KINASES AND HISTONE DEACETYLASES” (4SC AG, priority 2007, published 2011).
Where a name gives a salt, the structure may show the parent alone. Read-outs that look alike come from different tables or passages of the source.

Experiments:
[1] = system: SKOV3 ovarian carcinoma cell line; test: Cellular cytotoxicity assay (Alamar Blue), SKOV3; assay type: cell-based; settings: Homo sapiens
Experimental: (§1) The anti-proliferative activity of the chimeric HDAC and protein kinase inhibitory chimeric compounds of the present invention was evaluated using HeLa cervical carcinoma, A549 NSCLC, SKOV3 ovarian carcinoma, Cal27 head and neck cancer, K562 chronic myeloid leukemia (CML) and EOL1 acute hypereosinophilic myeloid leukemia, cell lines. For quantification of cellular proliferation/living cells the Alamar Blue (Resazurin) cell viability assay was applied (O'Brien et al. Eur Biochem. 267, 5421-5426, 2000). In this assay Resazurin is reduced to the fluorescent resorufin by cellular dehydrogenase activity, correlating with viable, proliferating cells. The examples were dissolved as 20 mM solutions in dimethylsulfoxide (DMSO) and subsequently diluted in semi-logarithmic steps. Cell lines were seeded at respective density into 96 well flat bottom plates in a volume of 200 μl per well. 24 h after seeding 1 μl each of the compound dilutions were added into each well of the 96 well plate. Each compound dilution was tested as quadruplicates. Wells containing untreated control cells were filled with […] DMEM medium containing 0.5% v:v DMSO. The cells were then incubated with the substances for 72 h at 37° C. in a humidified atmosphere containing 5% carbon dioxide. To determine the viability of the cells, 20 μl of an Resazurin solution (Sigma; 90 mg/l) were added. After 4 h incubation at 37° C. the fluorescence was measured at an extinction of 544 nm and an emission of 590 nm. For the calculation of the cell viability the emission value from untreated cells was set as 100% viability and the emission rates of treated cells were set in relation to the values of untreated cells. Viabilities were expressed as % values. The corresponding IC50 values of the compounds for cytotoxic activity are determined from the concentration-effect curves by means of non-linear regression.

[2] = system: histone H3 hyperacetylation in HeLa cervical carcinoma cells; test: Cellular histone H3 hyperacetylation assay; assay type: cell-based; settings: Homo sapiens, 24 h, only a range over the listed compounds is given, read-out: Induction of histone H3 hyperacetylation in HeLa cervical carcinoma cells EC50
Excerpt: To assess the cellular efficacy of a histone deacetylase inhibitor in vitro, an assay was set up in black clear-bottom 96-well plates and optimized for use on the Cellomics “ArrayScan II” platform for a quantitative calculation of histone acetylation. The protocol uses a polyclonal rabbit antibody, specifically binding to acetylated lysine 1-20 of human histone H3 on fixed cells with an Alexa Fluor 488 labeled goat anti rabbit-IgG used for counterstaining (Beckers et al. Int J. Cancer 121, 1138, 2007).
5×10^3 HeLa cervical carcinoma cells/well (ATCC. CCL-2) in 200 μl Dulbecco rs modified Eagle's medium (DMEM) containing 10% fetal calf serum are seeded at day 1 in Packard view plates and incubated for 24 h under standard cell culture conditions. On day 2, 1 μl test compound (200× final concentration) is added and incubation continued for further 24 h. On day 3, the culture medium is discarded and attached cells fixed for 15 min at room temperature by addition of 100 μl fixation buffer (3.7% v:v formaldehyde in phosphate buffered saline/PBS). After discarding the fixation buffer and one wash with blocking solution (1% BSA, 0.3% Tween 20 in PBS), cells are permeabilized at room temperature by addition of 100 μl/well permeabilization buffer (30.8 mM NaCl, 0.54 mM Na2HPO4, 0.31 mM KH2PO4, 0.1% v:v Triton X-100) for 15 min at room temperature. After discarding the permeabilization buffer and washing twice with 100 μl/well blocking solution at room temperature, the 1st antibody (anti-K^1-20 histone H3 antibody, Calbiochem No. 382158) in blocking solution (50 μl/well) is added. After incubation for 1 h at room temperature, the wells are washed twice at room temperature with 100 μl/well blocking solution before addition of the 2nd antibody (goat-anti-rabbit Alexa Fluor 488; MoBiTec No. A-11008) in blocking solution (50 μl/well). After further incubation for 1 h at room temperature, wells are washed twice with 100 μl/well blocking solution at room temperature. Finally, 100 μl/well PBS are added and image analysis performed on the Cellomics “ArrayScan II” platform. For EC50 determination, the percentage of positive cells showing nuclear fluorescence is determined and EC50 calculation done from concentration-effect curves by means of non-linear regression. For calibration, a positive (reference HDAC inhibitors like SAHA or NVP LBH-589) and a negative control were included.

A549 NSCLC cell line = test: Cellular cytotoxicity assay (Alamar Blue), A549; assay type: cell-based; settings: Homo sapiens
Experimental: as §1

[3] = system: Cal27 head and neck cancer cell line; test: Cellular cytotoxicity assay (Alamar Blue), Cal27; assay type: cell-based; settings: Homo sapiens
Experimental: as §1

[4] = system: HeLa cervical carcinoma cell line; test: Cellular cytotoxicity assay (Alamar Blue), HeLa; assay type: cell-based; settings: Homo sapiens, 72 h
Experimental: as §1

[5] = target: T1, recombinant HDAC1 isolated from HEK293 cells with heterologous HDAC1 expression (Homo sapiens, UniProt Q13547); test: Fluorimetric rHDAC1 activity assay; assay type: biochemical; settings: only a range of IC50 over the compounds given; read-out: rHDAC1 inhibitory activity IC50
T1 construct: made in house

[6] = system: EOL1 acute hypereosinophilic myeloid leukemia cell line; test: Cellular cytotoxicity assay (Alamar Blue), EOL1; assay type: cell-based; settings: Homo sapiens, 72 h, only a range over the listed compounds is given, read-out: Cytotoxicity towards EOL1 cell line IC50
Experimental: as §1

PDGFRβ = target: T2, PDGFRβ (Homo sapiens, UniProt P09619); test: Biochemical flash-plate based kinase assay, PDGFRβ; settings: only a range over the listed compounds is given; read-out: PDGFRβ inhibition IC50
T2 construct: purchased ProQinase, Freiburg/Germany
Excerpt: Active kinase proteins were either obtained from commercial suppliers (Abl, PDGF-Rβ ProQinase, Freiburg/Germany; AblT^315I: Millipore/Upstate, Billerica/USA; PKA: InvitroGen/Panvera, Carlsbad/USA) or prepared in-house (KDR, c-terminal kinase domain AA790-1356, HER2 c-terminal kinase domain, EGFR/HER1 C-terminal kinase domain). As substrates, poly-AGKY for Abl, AblT^315I and PDGF-Rβ (#P-1152 Sigma, Munich/Germany), poly-GluTyr for KDR, HER2 and EGFR/HER1 (#P-0275, Sigma, Munich/Germany) or a PKA substrate peptide for PKA (#12-394, Millipore/Upstate, Billerica/USA) were used. Into each well of a 96-well flashplate (#SMP-200 in the case of Abl, Abl T^315I, PDGF-Rβ, EGFR, HER2 and KDR, #SMP-103 in the case of PKA; Perkin Elmer, Waltham/USA) kinase protein was diluted into kinase assay buffer (50 mM HEPES pH 7.5, 3 mM MgCl2, 3 mM MnCl2, 1 mM DTT, 3 μM sodium orthovanadate, 5 μg/ml PEG 8000) containing the appropriate substrate (final volume 89 μl). DMSO vehicle or compounds are added as 1 μl/well prior to the initiation of the kinase reaction by 10 μl 1 mM [^33P]-γATP (4×10^5 cpm). Reactions were allowed to proceed for a time predetermined to be linear on a time versus phosphorylation plot (30 min for PKA, otherwise 80 min) and terminated with the addition of an equal volume of phosphoric acid (2% H3PO4 for 5 minutes). Plates were washed three times with 0.9% w/v NaCl and quantitated by liquid scintillation counting.

[7] = system: K562 chronic myeloid leukemia (CML) cell line; test: Cellular cytotoxicity assay (Alamar Blue), K562; assay type: cell-based; settings: Homo sapiens, 72 h, only a range over the listed compounds is given, read-out: Cytotoxicity towards K562 CML cell line IC50
Experimental: as §1

[8] = SK-OV-3, 72 h, only a range over the listed compounds is given, read-out: Cytotoxicity towards SKOV3 cell line IC50
[9] = A549, 72 h, only a range over the listed compounds is given, read-out: Cytotoxicity towards A549 NSCLC cell line IC50
[10] = CAL-27, 72 h, only a range over the listed compounds is given, read-out: Cytotoxicity towards Cal27 cell line IC50
[11] = only a range over the listed compounds is given, read-out: Cytotoxicity towards HeLa cervical cell line IC50

T2 sequence (P09619 33-1106): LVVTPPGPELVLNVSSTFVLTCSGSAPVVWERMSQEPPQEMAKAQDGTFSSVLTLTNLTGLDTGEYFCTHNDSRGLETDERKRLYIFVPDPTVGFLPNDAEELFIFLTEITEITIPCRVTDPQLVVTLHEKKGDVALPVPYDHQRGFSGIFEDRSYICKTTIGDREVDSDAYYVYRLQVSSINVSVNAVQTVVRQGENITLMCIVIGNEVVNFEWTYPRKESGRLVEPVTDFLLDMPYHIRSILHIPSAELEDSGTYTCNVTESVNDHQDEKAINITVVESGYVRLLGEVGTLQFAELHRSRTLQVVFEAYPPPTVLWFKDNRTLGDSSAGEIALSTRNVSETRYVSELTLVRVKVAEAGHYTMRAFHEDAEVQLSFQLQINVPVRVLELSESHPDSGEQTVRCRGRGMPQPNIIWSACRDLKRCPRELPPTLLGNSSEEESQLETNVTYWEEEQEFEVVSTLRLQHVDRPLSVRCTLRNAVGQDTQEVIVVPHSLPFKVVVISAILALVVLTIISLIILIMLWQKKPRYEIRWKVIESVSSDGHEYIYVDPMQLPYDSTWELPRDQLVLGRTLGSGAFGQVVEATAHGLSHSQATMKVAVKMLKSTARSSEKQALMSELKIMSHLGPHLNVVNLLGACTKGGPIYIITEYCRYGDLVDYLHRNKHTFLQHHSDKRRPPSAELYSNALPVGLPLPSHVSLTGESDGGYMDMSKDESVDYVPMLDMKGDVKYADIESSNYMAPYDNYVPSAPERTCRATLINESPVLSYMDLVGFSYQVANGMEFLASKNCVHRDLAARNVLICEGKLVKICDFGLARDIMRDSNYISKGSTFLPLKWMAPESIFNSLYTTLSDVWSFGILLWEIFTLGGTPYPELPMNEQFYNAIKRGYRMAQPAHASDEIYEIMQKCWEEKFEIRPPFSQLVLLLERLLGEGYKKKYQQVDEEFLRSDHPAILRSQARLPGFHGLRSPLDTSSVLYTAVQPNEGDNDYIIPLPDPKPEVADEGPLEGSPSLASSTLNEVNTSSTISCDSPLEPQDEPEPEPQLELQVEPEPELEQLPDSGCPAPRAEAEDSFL
T1 sequence (Q13547 whole entry): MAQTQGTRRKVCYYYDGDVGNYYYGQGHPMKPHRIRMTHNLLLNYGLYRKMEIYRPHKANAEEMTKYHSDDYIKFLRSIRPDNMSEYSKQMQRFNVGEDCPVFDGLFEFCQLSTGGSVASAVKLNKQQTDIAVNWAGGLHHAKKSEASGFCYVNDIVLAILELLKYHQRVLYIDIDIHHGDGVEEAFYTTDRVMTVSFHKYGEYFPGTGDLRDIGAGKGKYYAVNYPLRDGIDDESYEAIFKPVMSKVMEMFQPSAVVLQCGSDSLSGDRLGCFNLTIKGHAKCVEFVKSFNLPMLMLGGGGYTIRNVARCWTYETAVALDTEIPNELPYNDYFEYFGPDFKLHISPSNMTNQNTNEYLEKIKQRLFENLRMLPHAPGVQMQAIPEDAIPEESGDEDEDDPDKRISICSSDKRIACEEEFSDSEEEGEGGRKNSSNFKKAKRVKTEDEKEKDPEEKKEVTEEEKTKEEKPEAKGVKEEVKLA

For `Nc1ccccc1NC(=O)c1ccc(-c2ccc3ncnc(Nc4ccc(OCc5cccc(F)c5)c(Cl)c4)c3c2)o1` [[5], 5-{4-[3-Chloro-4-(3-fluorobenzyloxy)phenylamino]-quinazolin-6-yl}furan-2-carboxylic acid (2-amino-phenyl)amide], the IC50 [1, 8] was ≥ 1e-06 M, the EC50 [2] was ≥ 3650 nM and the IC50 (A549 NSCLC cell line; [9]) was ≥ 1.1e-06 M. For the same compound, the melting point was 250 °C (dec.).
With `O=C(/C=C/c1ccc(-c2ccc3ncnc(Nc4ccc(OCc5cccc(F)c5)c(Cl)c4)c3c2)cc1)NO` [[8], (E)-3-(4-(4-(3-chloro-4-(3-fluorobenzyl-oxy)phenylamino)quinazolin-6-yl)phen-yl)-N-hydroxyacrylamide hydrochloride monohydrate] the IC50 ([1]; SK-OV-3, 72 h, read-out: Cytotoxicity towards SKOV3 cell line IC50 (M)) was ≥ 1e-06 M, the IC50 (A549 NSCLC cell line; A549, 72 h, read-out: Cytotoxicity towards A549 NSCLC cell line IC50 (M)) was ≥ 1.1e-06 M and the IC50 ([3]; CAL-27, 72 h, read-out: Cytotoxicity towards Cal27 cell line IC50 (M)) was ≥ 2.8e-07 M. The IC50 ([4]; read-out: Cytotoxicity towards HeLa cervical cell line IC50 (M)) was 9.1e-07 to 9.4e-06 M and the IC50 [5] was ≥ 35.3 nM.
For `Nc1ccccc1NC(=O)/C=C/c1cccc(-c2ccc3ncnc(Nc4ccc(OCc5cccc(F)c5)c(Cl)c4)c3c2)c1` [[11], (E)-N-(2-aminophenyl)-3-(3-(4-(3-chloro-4-(3-fluorobenzyloxy)phenylamino)-quinazolin-6-yl)phenyl)acrylamide], the IC50 (A549 NSCLC cell line; [9]) was ≥ 1.1e-06 M, the IC50 [3, 10] was ≥ 2.8e-07 M and the IC50 [5] was ≥ 35.3 nM.
In the case of `Cc1ccc(NC(=O)c2ccc(C(=O)Nc3ccccc3N)cc2)cc1Nc1nccc(-c2cccnc2)n1` [[14], N-(2-Amino-phenyl)-N′-[4-methyl-3-(4-pyridin-3-yl-pyrimidin-2-ylamino)-phenyl]-terephthalamide compound with trifluoroacetic acid], the IC50 [4, 11] is reported as ≥ 1.15e-06 M, the IC50 [6] is reported as 3 to 780 nM and the IC50 (PDGFRβ) is reported as 2100 to 71000 nM.
For `Cc1ccc(NCc2ccc(/C=C/C(=O)NO)cc2)cc1Nc1nccc(-c2cccnc2)n1` [[16], (E)-N-Hydroxy-3-(4-{[4-methyl-3-(4-pyridin-3-yl-pyrimidin-2-ylamino)-phenylamino]methyl}-phenyl)-acrylamide], the EC50 [2] was 1700 to 10000 nM, the IC50 (A549 NSCLC cell line; [9]) was ≥ 2.95e-06 M and the IC50 [4, 11] was ≥ 1.15e-06 M. The melting point was 201 to 205 °C and the IC50 [5] was 77 to 1400 nM.
Work on `Nc1ccccc1NC(=O)c1ccc(C(=O)Nc2cccc(Nc3nc(-c4cccnc4)cs3)c2)cc1` [[18], N^1-(2-aminophenyl)-N^4-(3-(4-(pyridin-3-yl)thiazol-2-ylamino)phenyl)terephthalamide hydrate] yielded an IC50 (PDGFRβ) of 2100 to 71000 nM.
For `Cc1ccc(NC(=O)c2ccc(C(=O)NO)cc2)cc1Nc1nc(-c2cccnc2)cs1` [[20], N^1-hydroxy-N^4-(4-methyl-3-(4-(pyridin-3-yl)thiazol-2-ylamino)phenyl)terephthalamide], the EC50 [2] was 1700 to 10000 nM, the IC50 (A549 NSCLC cell line; [9]) was ≥ 2.95e-06 M and the IC50 [4, 11] was ≥ 1.15e-06 M. For the same compound, the melting point was 261 °C and the IC50 (PDGFRβ) was 2100 to 71000 nM.
`Nc1ccccc1NC(=O)c1ccc(C(=O)Nc2cccc(Nc3nc(-c4cccnc4)cs3)c2)cn1` [[24], N^2-(2-aminophenyl)-N^5-(3-(4-(pyridin-3-yl)thiazol-2-ylamino)phenyl)pyridine-2,5-dicarboxamide] showed an IC50 [7] of 490 to 4070 nM and a melting point of 148 to 150 °C.
For `Cc1ccc(NC(=O)c2ccc(C(=O)Nc3ccccc3N)s2)cc1Nc1nccc(-c2cccnc2)n1` [[26], N^2-(2-aminophenyl)-N^5-(4-methyl-3-(4-(pyridin-3-yl)pyrimidin-2-ylamino)phenyl)thiophene-2,5-dicarboxamide], the IC50 (A549 NSCLC cell line; [9]) was ≥ 2.95e-06 M, the IC50 [7] was 490 to 4070 nM and the IC50 [6] was 3 to 780 nM. It also gave a melting point of 280.5 °C.
`CN(C(=O)c1ccc(C(=O)Nc2ccccc2N)cc1)c1ccc(Cl)c(Nc2nccc(-c3cccnc3)n2)c1` [[35], N-(2-Amino-phenyl)-N′-[4-chloro-3-(4-pyridin-3-yl-pyrimidin-2-ylamino)-phenyl]-N′-methyl-terephthalamide] showed an IC50 [7] of 490 to 4070 nM, an IC50 [6] of 3 to 780 nM and an IC50 [5] of 77 to 1400 nM.
In the case of `C#Cc1cccc(Nc2ncnc3ccc(S(=O)(=O)n4ccc(/C=C/C(=O)NO)c4)cc23)c1` [[45], 3-{1-[4-(3-Ethynylphenylamino)quinazoline-6-sulfonyl]-1H-pyrrol-3-yl}-N-hydroxy-acrylamide], the IC50 [1, 8] is reported as ≥ 5.6e-07 M, the IC50 (A549 NSCLC cell line; [9]) is reported as ≥ 2.4e-07 M and the IC50 [3, 10] is reported as 1.6e-07 to 8e-06 M. For the same compound, the IC50 [4, 11] was ≥ 5e-07 M.
